Results on 1 molecule are retold here after patent publication US12552769B2, “Pyrimidine derivative” (ASKA PHARMACEUTICAL CO., LTD., priority 2021, dated 2026).

For orientation: solubility means how much of the substance goes into solution per volume. Read a high solubility as much dissolved substance. A word on the IC50: it is the concentration needed to halve the response being measured. Usually AUC(0-inf) stands for the area under the concentration-time curve extrapolated to infinity. Broadly, the AUC(0-t) is the area under the concentration-time curve up to a stated or last time point. The low end stands for low exposure, the high end for high exposure. What is called Cmax is the maximum level reached in the sampled fluid or tissue. What is called Tmax is the time from dosing to the highest level. For orientation: half-life means the time needed for the level to fall by half in the phase considered. Lower therefore signals fast loss.

SMILES strings stand for the structures. Where only a bound is given, the exact number is not on record here.

A short description of data set [1]: Solubility test. Particulars: aqueous buffer, kinetic from dmso stock; JP2 solution (pH 6.8), 10 mM DMSO solution diluted 50-fold, incubation 16 to 24 hours. It is filed as physicochemical. The method, then:
A 10 mM solution of the compound of Example 1 in DMSO was prepared, and diluted 50-fold with JP2 solution (pH 6.8). After incubation for 16 to 24 hours, the test solution was filtered, and the concentration of the compound in the filtrate was determined by HPLC-UV or with a plate reader. For comparison, the compound of International Patent Publication WO2017/73709, Example 182 was tested in the same manner.

Data set [2] addresses T1, human mPGES-1 (Homo sapiens, UniProt O14684).
T1 construct: expressed in transfected cells; host or cells: COS-1 cells (microsomal fraction)
T1 sequence (O14684 1-152): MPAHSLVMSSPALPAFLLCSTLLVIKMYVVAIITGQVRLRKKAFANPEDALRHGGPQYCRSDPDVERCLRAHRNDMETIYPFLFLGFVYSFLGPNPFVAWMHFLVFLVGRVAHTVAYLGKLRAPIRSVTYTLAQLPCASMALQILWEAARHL
The data set is described as follows: Test for mPGES-1 inhibitory activity. It is filed as biochemical. The conditions noted are these: microsomes of COS-1 cells expressing human mPGES-1; PGH2 1 μM; 4° C.; PGE2 by EIA; read-out: IC50 value (mPGES-1 inhibition). The procedure: Microsomes were prepared from COS-1 cells transiently transfected with a plasmid containing human mPGES-1 cDNA, and used as mPGES-1 enzyme. The mPGES-1 enzyme was diluted with a sodium phosphate buffer (pH 7.2) containing reduced glutathione (2.5 mM) and EDTA (1 mM), DMSO or a DMSO solution of a test compound (final concentration of DMSO was 1%) was added to the enzyme, and the mixture was preincubated at 4° C. for 15 minutes. Then, PGH2 as the substrate was added at a final concentration of 1 μM to start the enzymatic reaction, and after incubation at 4° C. for 4 minutes, a solution of ferric chloride (25 mM) and citric acid (50 mM) was added to terminate the enzymatic reaction. Generated PGE2 was measured by using Prostaglandin E2 Express EIA Kit (Cayman Chemical). IC50 values were determined by using a standard method.

The nature of data set [3]: Blood concentration (plasma pharmacokinetics after oral administration). It is filed as in vivo. The conditions noted are these: female, guinea pig, guinea pigs, oral 10 mg/kg, mean (n = 2). The procedure:
The compound of Example 1 and the compound disclosed in International Patent Publication WO2017/73709, Example 182 were weighed in an amount of 10 mg each for a dose of 10 mg/kg, and each compound was finely ground in an agate mortar for about 30 seconds. 0.5% Methyl cellulose 400 solution (Fujifilm Wako Pure Chemicals Co., Ltd.) was added small portionwise to each compound to form a suspension, finally the mortar was washed with a small volume of 0.5% MC400 solution, which was combined with the suspension, and the total volume of the suspension was made to be 10 mL with 0.5% MC400 solution. The suspension was sonicated for approximately 1 minute to prepare a 1 mg/mL solution for administration. The solution was administered to two female guinea pigs at a dose of 10 mL/kg using a flexible oral catheter (RZ-1, Nippon Clea), and blood was collected 0.5, 1, 2, 4, 6, 10, and 24 hours after the oral administration, and centrifuged to obtain plasma. Plasma concentrations of the compounds were measured by the LC-MS/MS (liquid chromatography-tandem mass spectrometry) method.

Data set [4] concerns UGT. As to the kind of experiment: Metabolic stability test (UGT), guinea pig microsomes. It is filed as in vitro ADME. The conditions noted are these: Guinea pig liver or small intestine microsomes 0.5 mg protein/mL, compound 1 μM, UDPGA 2 mM, 5 minutes at 37° C. The method, then:
(§1) DMSO was added to the compound of Example 1 to dissolve the compound, and then acetonitrile and water were added to prepare a test compound solution (10 μM). The test compound solution (final concentration 1 μM), a potassium phosphate buffer (pH 7.4) containing MgCl2 (9 mM) and alamethicin (25 μg/mL), and a rat or guinea pig liver or small intestine microsomal suspension were mixed (final concentration 0.5 mg protein/mL) under ice cooling. After 5 minutes of pre-incubation at 37° C. with stirring, a UDPGA solution (final concentration 2 mM) was added to initiate the reaction. After 5 minutes of incubation at 37° C. with stirring, 3-fold volume of acetonitrile was added, and the resulting mixture was stirred to terminate the enzymatic reaction. The reaction mixture was centrifuged (1500×g, 10 minutes, 4° C.), and the supernatant was mixed with an internal standard solution to prepare a measurement sample. The concentration of the compound in the sample was determined by LC-MS/MS. A sample in which the enzymatic reaction was not allowed was separately prepared, and the concentration measured for this sample was used as the initial value. For comparison, the compound of International Publication WO2017/73709, Example 182 was tested in the same manner.

Data set [5] has as its system UGT. The data set is described as follows: Metabolic stability test (UGT), rat microsomes. It is filed as in vitro ADME. Particulars: Rat liver or small intestine microsomes 0.5 mg protein/mL, compound 1 μM, UDPGA 2 mM, 5 minutes at 37° C. The procedure: as §1

On to `CC(C)(F)C(=O)NCc1ccc(C(F)(F)F)c(-c2nc(-c3ccc(C(F)(F)F)cn3)cc(=O)[nH]2)c1F` [Example 1, 2-Fluoro-N-(2-fluoro-3-{6-oxo-4-[5-(trifluoromethyl)pyridin-2-yl]-1,6-dihydropyrimidin-2-yl}-4-(trifluoromethyl)benzyl)-2-methylpropanamide], for which, in data set [1], the solubility was > 110 µg/mL. Also, in data set [2], the IC50 is 1.8 nM. In data set [3], the AUC(0-inf) came to 62.1 µM·h, the AUC(0-t) amounted to 42.4 µM·h, the Cmax amounted to 5.63 µM and the Tmax was determined as 1.5 h. The molecule also showed a half-life in data set [3] of 13.3 h. Besides, in data set [3] (read-out: MRT0-∞), the MRT inf stood at 18.3 h. For the same molecule, in data set [4], the UGT metabolic stability is on record as 130 μL/min/mg protein. Also, in data set [5], the UGT metabolic stability amounted to 124 μL/min/mg protein.
